Experimental data reported in US12310985B2, “Composition and method for treatment of diabetes” (SHENZHEN PROFOUND VIEW PHARMACEUTICAL TECHNOLOGY, priority 2020, dated 2025).
Where a name gives a salt, the structure may show the parent alone.

Assays:
Assay type in all cases: in vivo
[1] = tested on: C57BL/6 male mice, high energy feed + STZ diabetic model; experiment: Pancreatic insulin content (ELISA); details: end of experiment, Sample 10 mg/kg, Positive control 22.5 mg/kg
Experimental: (§1) After each group was given a maintenance feed for 1 week, except for the negative control group, the other groups were replaced with the high energy feed from 3.1.7.1. After 3 weeks of feeding, each group was fasted for 24 h. Except for the negative control group, the other groups were intraperitoneally injected with 5 mg/mL STZ solution at a dose of 20 mL/kg bodyweight. All groups were fed for 4 days. Fasting blood glucose and glucose tolerance were measured on the 5th day, and the test was terminated the next day.
From the feeding of the maintenance feed, the sample group was intraperitoneally injected with the test sample solution once per day at 20 mL/kg bodyweight, the negative control group and the model control group were intraperitoneally injected with sodium chloride solution, and the positive control group was intragastrically administered with pioglitazone hydrochloride solution at a dose of 20 mL/kg bodyweight for 34 days until the end of the test. […]
(§2) On the 5th day after intraperitoneal injection of STZ, the mice in each group were fasted for about 5 hours with water provided. […] After 20 minutes, each group was intragastrically administered with 0.125 g/mL glucose solution at 20 mL/kg bodyweight, and the blood glucose level was measured at 0.5, 1, 1.5, 2 h after the administration of the glucose solution. […]

[2] = tested on: C57BL/6 male mice, high energy feed + STZ diabetic model; experiment: Glucose tolerance index; details: Sample 10 mg/kg, Positive control 22.5 mg/kg
Experimental: as §1
(§3) From the feeding of the maintenance feed, the sample group was intraperitoneally injected with the test sample solution once per day at 20 mL/kg bodyweight, the negative control group and the model control group were intraperitoneally injected with sodium chloride solution, and the positive control group was intragastrically administered with pioglitazone hydrochloride solution at a dose of 20 mL/kg bodyweight for 34 days until the end of the test. On the day of injection of STZ, each group was administered 4 h after STZ injection.
(§4) On the 5th day after intraperitoneal injection of STZ, the mice in each group were fasted for about 5 hours with water provided. After measuring the fasting blood glucose level (0 h), the sample group and positive control group were intraperitoneally injected with the corresponding drugs. The negative control group and the model control group were intraperitoneally injected with sodium chloride solution. After 20 minutes, each group was intragastrically administered with 0.125 g/mL glucose solution at 20 mL/kg bodyweight, and the blood glucose level was measured at 0.5, 1, 1.5, 2 h after the administration of the glucose solution. On the next day, the mice in each group were fasted for 5 h after the administration. The mice were anesthetized with 3% sodium pentobarbital solution in an amount of 10 mL/kg bodyweight, and sacrificed after collecting the eyeballs and bloods. The blood samples were centrifuged at 3000 r/min for 10 min, and the sera were collected for the detection of serum insulin, triglycerides, and total cholesterol. At the same time, the pancreas of each animal was collected. Six animals in each group were fixed with 10% paraformaldehyde for HE staining and insulin immunohistochemical staining in pancreas. The remaining 6 animals were preserved at −80° C. for insulin content determination.
Calculate the area under the blood glucose curve at 0, 0.5, 1, 1.5, 2 h after glucose administration. The formula is as follows:
Area under the blood glucose curve: [(0 h blood glucose+0.5 h blood glucose)×0.5]/2+[(0.5 h blood glucose+1 h blood glucose)×0.5]/2+[(1 h blood glucose+1.5 h) Blood glucose level)×0.5]/2+[(1.5 h blood glucose level+2 h blood glucose value)×0.5]/2.

[3] = Body weight of mice during experiments (high energy feed + STZ diabetic model); details: Sample 10 mg/kg i.p., Positive control 22.5 mg/kg intragastric, 1 time/day
Source text: 3.2.1 C57BL/6 mice are more commonly used in diabetes tests. 90 C57BL/6 male mice (SPF level) with a body weight of 18.8-24.2 g at the beginning of the experiment were purchased from Guangdong Medical Laboratory Animal Center (Experimental Animal Production License No. SCXK (Yue) 2018-0002; Animal Certificate No. 44007200059759);
as §1, §3
Weighed at the beginning of the trial, at the end of the trial, and once a week during the trial.

[4] = tested on: C57BL/6 male mice, high energy feed + STZ diabetic model; experiment: Fasting blood glucose index
Experimental: as §1, §3
as §4, with “At the same time, the pancreas of each animal was collected. Six animals in each group were fixed with 10% paraformaldehyde for HE staining and insulin immunohistochemical staining in pancreas. The remaining 6 animals were preserved at −80° C. for insulin content determination.” left out

[5] = tested on: C57BL/6 male mice, high energy feed + STZ diabetic model; experiment: Serum insulin content; details: end of experiment; Sample 10 mg/kg, Positive control 22.5 mg/kg
Experimental: as §1, with “day. […]” for “day.”
as §2
(§5) At the end of the experiment, serum was collected for assaying serum insulin, triglycerides, and total cholesterol. The insulin resistance index was calculated.

[6] = tested on: C57BL/6 male mice, high energy feed + STZ diabetic model; experiment: Serum cholesterol (TC) and triglyceride (TG) content; details: serum at end of experiment; Sample 10 mg/kg, Positive control 22.5 mg/kg
Experimental: as §1, with “day. […]” for “day.”
as §2, §5

CCc1ccc(CCOc2ccc(CC3SC(=O)NC3=O)cc2)nc1 (stereo not shown) [Positive control, Pioglitazone hydrochloride]
pancreatic insulin content [1]: 8.4 ± 3.0 mIU/mL | Glucose tolerance index, blood glucose ([2]; 0 h, 5th day after STZ): 13.8 ± 2.8 mmol/L | Glucose tolerance index, blood glucose ([2]; 0.5 h after glucose administration): 30.1 ± 5.4 mmol/L | Glucose tolerance index, blood glucose ([2]; 1 h after glucose administration): 26.9 ± 7.0 mmol/L | Glucose tolerance index, blood glucose ([2]; 1.5 h after glucose administration): 20.7 ± 6.2 mmol/L | Glucose tolerance index, blood glucose ([2]; 2 h after glucose administration): 17.9 ± 6.3 mmol/L | Bodyweight ([3]; d 2): 22.2 ± 1.2 g | Bodyweight ([3]; d 9): 23.0 ± 1.3 g | Bodyweight ([3]; d 16): 24.2 ± 1.2 g | Bodyweight ([3]; d 23): 25.6 ± 1.5 g | Bodyweight ([3]; d 29): 26.2 ± 1.6 g | Bodyweight ([3]; d 32): 26.0 ± 1.4 g | Bodyweight ([3]; d 35): 25.8 ± 1.3 g | Fasting blood glucose index, Post experiment ([4]; 5th day after STZ, fasting about 5 h, Sample 10 mg/kg i.p., Positive control 22.5 mg/kg intragastric, 1 time/day): 13.8 ± 2.8 mmol/L | Decrease percentage of blood glucose ([4]; (prior − post)/prior × 100%, Sample 10 mg/kg i.p., Positive control 22.5 mg/kg intragastric): −21.8 ± 39.0% | Fasting blood glucose index, Prior to Experiment ([4]; prior to experiment (baseline), fasting about 5 h): 12.0 ± 2.6 mmol/L | serum insulin content [5]: 28.2 ± 3.6 mIU/mL | TC [6]: 4.76 ± 0.56 mmol/L | TG [6]: 0.76 ± 0.14 mmol/L
